This is an account of results in patent publication US20240016876A1, “COMPOSITION FOR HANGOVER RELIEF COMPRISING NONI FRUIT EXTRACT OR FRACTION THEREOF AND USE THEREOF” (Cosmax NBT, Inc., priority 2020, published 2024).

For this assay, the system named is alcohol dehydrogenase (ADH). In words: ADH activity enhancing efficacy (in vitro, Bergmeyer method). The settings on record: samples treated at 10 μM; control group (CTL) not treated = 100%; FIGS. 1 and 2. Type of assay: biochemical. The method, then:
The ADH activity was measured by referring to [Bergmeyer, H. U. 1974. Methods of enzymatic analysis. Academic Press, New York. pp. 28], and measurements were made according to the method presented herein. All samples were treated at 10 μM, and the ADH activity of each sample was expressed as relative activity (%) with respect to the control group, based on 100% of the activity of the control group (CTL) which was not treated with the sample.
In the case of `O=C(O)/C=C/c1ccc(O)c(O)c1` [caffeic acid], the “ADH activity compared to the control group” value is “did not show an increase”. For `CC(=O)OCC1=C[C@H](O)[C@@H]2C(C(=O)O)=CO[C@@H](O[C@@H]3O[C@H](CO)[C@@H](O)[C@H](O)[C@H]3O)[C@H]12` [asperulosidic acid], the “ADH activity compared to the control group” value was “did not show an increase”. Regarding `O=C(O)c1ccc(O)cc1` [4-hydroxybenzoic acid], the “ADH activity compared to the control group” value was “did not show an increase”.

For `CC(=O)OCC1=C[C@@H]2OC(=O)C3=CO[C@@H](O[C@@H]4O[C@H](CO)[C@@H](O)[C@H](O)[C@H]4O)[C@H]1[C@@H]32` [asperuloside], the “ADH activity compared to the control group” value is on record as “did not show an increase”. As for `O=C(/C=C/c1ccc(O)c(O)c1)O[C@@H]1C[C@](O)(C(=O)O)C[C@@H](O)[C@H]1O` [chlorogenic acid], the “ADH activity compared to the control group” value is on record as “did not show an increase”. The result for `O=C(O)c1cc(O)c(O)c(O)c1` [gallic acid] reads “did not show an increase”; that for `COc1cc2ccc(=O)oc2cc1O` [scopoletin], “did not show an increase”. As for `COc1ccc(C(=O)O)cc1` [p-anisic acid], the “ADH activity compared to the control group” value is listed as “did not show an increase”. The value for `O=C(O)C1=CO[C@@H](O[C@@H]2O[C@H](CO)[C@@H](O)[C@H](O)[C@H]2O)[C@@H]2C(CO)=C[C@H](O)[C@H]12` [deacetylasperulosidic acid] was “did not show an increase”.
